Patent US7494996B2 (priority 2000, dated 2009)

Experiments:
Pyricularia oryzae = experiment: whole plant or invertebrate; format: in vivo; settings: 100 is total disease control, 0 is no disease control; for Rice Blast (RB) protectant fungicide data, percent control: 300 g/ha, greenhouse; for pest or weed control at 300 g/ha: Pyricularia oryzae, topical, 144 h, read-out: Rice Blast (RB) protectant fungicide data, percent control, protectant, 300 g/ha, greenhouse
Sphaerotheca fuliginea = experiment: Cucumber Powdery Mildew (CPM) protectant test in the greenhouse; format: in vivo; settings: 100 is total disease control, 0 is no disease control; for Cucumber Powdery Mildew (CPM) protectant fungicide data, percent control: 300 g/ha; for pest or weed control at 300 g/ha: Podosphaera fuliginea, topical, 168 h, read-out: Cucumber Powdery Mildew (CPM) protectant fungicide data, percent control
Procedure: Plants used in the fungicide testing program were grown in 2-¼-inch (5.7-cm). square pots containing RediEarth propagation substrate. The plants were raised under greenhouse conditions. The rice plants were 12-days-old and cucumbers were 13-days-old at the time of spraying with chemical treatments.
The sample of the experimental chemical was weighed and dissolved in an acetone-methanol-water solution (A/M/W at 1:1:2 ratio by volume).
After sprayer calibration, the test solutions were poured into the fungicide sprayer. The fungicide sprayer contains three spray nozzles, located approximately 10 cm above and to the sides of the plants. The spray produced by the nozzles results in uniform coverage of both the upper and lower parts of the plant leaves. After spraying, the treated plants were placed in a drying chamber for 4 hours, prior to sorting.
Cucumber Powdery Mildew (CPM), caused by the fungus Sphaerotheca fuliginea, was maintained on large cucumber plants. For inoculum preparation, five to eight leaves depending on size, completely covered with powdery mildew spores, were collected. The leaves were placed in a glass jar and covered with 500 ml of water, containing 5 drops of Tween-80. The material was filtered through two layers of cheesecloth to remove leaf fragments. The spore count was adjusted to 2×10^5 spores per ml.
Cucumber plants, cv. “Bush Champion,” were used for this test. The plants were thinned to one per pot after the cotyledons were fully developed. Two days before the test, the small leaves and meristem region were removed, leaving only the cotyledons and one large true leaf.
The protectant tests required that the cucumber plants be inoculated 1 day after spraying with the chemical treatment. The plants were inoculated with a hand-held spray bottle with the suspension of fungal spores. The leaves were lightly misted on the upper surface from two different spray directions. Disease development occurred in the greenhouse.
After seven days, the plants were evaluated for percent of disease control. The results are reported as percent control; 100 is total disease control, 0 is no disease control.

Row | SMILES | Rice Blast (RB) protectant fungicide data, percent control (Pyricularia oryzae) | Cucumber Powdery Mildew (CPM) protectant fungicide data, percent control (Sphaerotheca fuliginea) | pest or weed control at 300 g/ha (Pyricularia oryzae) | pest or weed control at 300 g/ha (Sphaerotheca fuliginea)
1 | CCCCN1N=C(c2cc(Cl)cc(Cl)c2)NCC1=O [Compound 104] | 99 percent control | 80 percent control |  | 
2 | C=CCOC(=O)N1CC(=O)N(CCCC)N=C1c1ccc(Cl)c(Cl)c1 [Compound 170] | 90 percent control | 75 percent control |  | 
3 | CCCCOc1ccc(C2=NN(CCC#N)C(=O)CN2)cc1 [Compound 160] | 75 percent control | 0 percent control |  | 
4 | CCCCN1N=C(c2ccc(OCC)cc2)NCC1=O [Compound 116] | 85 percent control | 0 percent control |  | 
5 | CN1N=C(c2ccc(C(F)(F)F)cc2)NCC1=O [Compound 122] | 75 percent control | 75 percent control |  | 
6 | CCCCC1=NN(c2ccc(Cl)cc2)C(=O)CN1 [Compound 204] | 75 percent control | 85 percent control |  | 
7 | C=CC1NC(c2ccc(Cl)c(Cl)c2)=NN(CCCC)C1=O (centres unmarked) [Compound 202] | 90 percent control | 0 percent control |  | 
8 | CCCCN1N=C(c2ccc(C)c(Cl)c2)NCC1=O [Compound 294] | 100 percent control | 80 percent control |  | 
9 | CCCCN1N=C(c2cc(Br)c(OC)c(Br)c2)NCC1=O [Compound 120] | 80 percent control | 0 percent control |  | 
10 | CSc1ccc(C2=NN(c3cccc(C)c3)C(=O)CN2)cc1 [Compound 187] | 80 percent control | 0 percent control |  | 
11 | Cc1cccc(-n2nc(-c3cccc(Cl)c3)ncc2=O)c1 [Compound 278] | 85 percent control | 0 percent control |  | 
12 | CC(=O)CC1NC(c2ccc(Cl)cc2)=NN(CC(F)(F)F)C1=O (centres unmarked) [Compound 20, 1-(2,2,2-Trifluorethyl)-3-(4-chlorophenyl)-5-(2-propanone)-4,5-dihydro-1,2,4-triazin-6-one] | 50 percent control | 75 percent control |  | 
13 | COC1NC(c2cc(Cl)cc(Cl)c2)=NN(CC(F)(F)F)C1=O (centres unmarked) [Compound 18, 1-(2,2,2-Trifluoroethyl)-3-(3,5-dichlorophenyl)-5-methoxy-4,5-dihydro-1,2,4-triazin-6-one] |  |  | 95% | 75%
14 | C#CCN1CC(=O)N(CC#C)N=C1c1cccc(C(F)(F)F)c1 [Compound 87] | 90 percent control | 0 percent control |  | 
15 | CCCOc1ccc(C2=NN(CC(F)(F)F)C(=O)CN2)cc1 [Compound 145] | 90 percent control | 0 percent control |  | 
16 | CCCCN1N=C(c2ccc(-c3ccc(C4=NN(CCCC)C(=O)CN4)cc3)cc2)NCC1=O [Compound 231] |  |  | 85% | 0%
17 | O=C1CNC(c2ccc(F)c(Br)c2)=NN1CC1CC1 [Compound 220] | 100 percent control | 80 percent control |  | 
18 | CCCOc1ccc(-c2ncc(=O)n(CC(F)(F)F)n2)cc1 [Compound 281] | 85 percent control | 95 percent control |  | 
19 | C=CC(=O)N1CC(=O)N(CC(F)(F)F)N=C1c1cc(Cl)cc(Cl)c1 [Compound 137] | 85 percent control | 0 percent control |  | 
20 | Cc1cccc(N2N=C(c3ccc(Cl)cc3)NCC2=O)c1 [Compound 58] | 85 percent control | 50 percent control |  | 

Row | SMILES | Rice Blast (RB) protectant fungicide data, percent control (Pyricularia oryzae) | Cucumber Powdery Mildew (CPM) protectant fungicide data, percent control (Sphaerotheca fuliginea) | pest or weed control at 300 g/ha (Pyricularia oryzae) | pest or weed control at 300 g/ha (Sphaerotheca fuliginea)
21 | CCCCN1N=C(C)NC(c2ccc(C(C)(C)C)cc2)C1=O (centres unmarked) [Compound 95] | 25 percent control | 75 percent control |  | 
22 | O=C1CNC(c2ccc(F)c(Cl)c2)=NN1CC(F)(F)F [Compound 1, 1-(2,2,2-trifluoroethyl)-3-(3-chloro-4-fluorophenyl)-4,5-dihydro-1,2,4-triazin-6-one] |  |  | 99% | 80%
23 | CCCCn1nc(-c2cc(C(F)(F)F)cc(C(F)(F)F)c2)ncc1=O [Compound 288] | 0 percent control | 75 percent control |  | 
24 | CCCCN1N=C(c2cc(Cl)cc(Cl)c2)N(C(=O)OC)CC1=O [Compound 130] | 50 percent control | 0 percent control |  | 
25 | CCCN1N=C(c2cc(Cl)cc(Cl)c2)NCC1=O [Compound 107] | 99 percent control | 95 percent control |  | 
26 | O=C1CNC(c2cc(Cl)cc(Cl)c2)=NN1CC=CCl (mixture of isomers) [Compound 67] | 99 percent control | 80 percent control |  | 
27 | C#CCN1N=C(c2ccc(Cl)c(Cl)c2)NCC1=O [Compound 215] | 85 percent control | 0 percent control |  | 
28 | CC(C)(C)OC(=O)N1CC(=O)N(C(=O)OC(C)(C)C)N=C1c1cc(Cl)cc(Cl)c1 [Compound 11, 1,4-di-(t-butoxycarbonyl)-3-(3,5-dichlorphenyl)-4,5-dihydro-1,2,4-triazin-6-one] | 75 percent control | 0 percent control |  | 
29 | CCOC(=O)N1N=C(c2cccc(Cl)c2)NCC1=O [Compound 198] | 80 percent control | 0 percent control |  | 
30 | CC(=O)N1CC(=O)N(CC(F)(F)F)N=C1c1cc(Cl)cc(Cl)c1 [Compound 72] | 75 percent control | 50 percent control |  | 
31 | O=C1CNC(c2ccc(Cl)cc2)=NN1c1ccccn1 [Compound 59] | 50 percent control | 0 percent control |  | 
32 | CCCCN1N=C(c2ccc(Cl)c(Cl)c2)N(Cc2ccccc2)CC1=O [Compound 182] | 85 percent control | 0 percent control |  | 
33 | COc1cccc(C2=NN(CC(F)(F)F)C(=O)CN2)c1 [Compound 46] | 80 percent control | 0 percent control |  | 
34 | O=C1CN(CC2CC2)C(c2cccc(Br)c2)=NN1CC1CC1 [Compound 224] | 75 percent control | 50 percent control |  | 
35 | CS(=O)(=O)N1CC(=O)N(CC(F)(F)F)N=C1c1ccc(Cl)cc1 [Compound 42] | 99 percent control | 50 percent control |  | 
36 | CCCCCCCCN1N=C(c2ccc(Cl)cc2)NCC1=O [Compound 56] | 80 percent control | 80 percent control |  | 
37 | CCCCN1N=C(C)NC(c2ccc(OC)cc2)C1=O (centres unmarked) [Compound 79] | 75 percent control | 50 percent control |  | 
38 | O=C1CNC(c2cccc(F)c2)=NN1CC1CC1 [Compound 223] | 95 percent control | 80 percent control |  | 
39 | Cc1c(Cl)cc(C2=NN(CC(F)(F)F)C(=O)CN2)cc1Cl [Compound 47] | 100 percent control | 80 percent control |  | 
40 | CCOc1ccc(C2=NN(c3ccc(Cl)cc3)C(=O)CN2)cc1 [Compound 161] | 80 percent control | 0 percent control |  | 
